Laboratory results taken from article PMC11125953 (Viruses, 2024).
Structures can show the parent of a compound that is named as a salt. Where two headings read alike, the source gives them in different places.

How the values were obtained:
[1] = tested on: EHV-4 405/76 reference strain; conditions: ratio of CC50 to EC50 obtained by qPCR
[2] = in vivo; cited from earlier work
in vitro [3] = conditions: horse
[4] = tested on: EHV-4 405/76 reference strain; conditions: for Si (CC50/EC50, RTCA): ratio of CC50 to EC50 obtained by RTCA; for CIT50 increase: RTCA, EHV-4-infected E. Derm cells
[5] = tested on: EHV-4 405/76 reference strain; test: microbe, parasite or virus in culture
[6] = tested on: EHV-4 405/76 reference strain; test: RTCA; format: cell-based, Equid herpesvirus 4; conditions: area under normalized Cell Index curves, 0-120 hpi, EHV-4-infected E. Derm cells
in vitro [7] = conditions: horse; remark: listed apart in the source
[8] = tested on: EHV-4 405/76 reference strain; test: microbe, parasite or virus in culture; remark: listed apart in the source
mice = conditions: mouse, in vivo; cited from earlier work
[9] = Cytotoxicity by CellTiter-Glo; conditions: horse
[10] = Cytotoxicity by impedance using RTCA; conditions: horse, E. Derm cells
[11] = Equid alphaherpesvirus 4, read-out: RTCA EC50 (µM ± S.D)
[12] = Equid alphaherpesvirus 4, read-out: RTCA EC50 (µg/mL ± S.D)
[13] = Equid alphaherpesvirus 4, read-out: qPCR EC50 (µM ± S.D)
[14] = Equid alphaherpesvirus 4, read-out: qPCR EC50 (µg/mL ± S.D)

Compound	SI (CC50 CellTiter-Glo/EC50 qPCR) [1]	Si (CC50/EC50, RTCA) [4]	EC50 [5, 11]	EC50 [5, 12]	AUCn ([6]; 0.4 µM)	AUCn ([6]; 2 µM)	AUCn ([6]; 10 µM)	AUCn ([6]; 50 µM)	EC50 [8, 13]	EC50 [8, 14]	CC50 [10]	further results
CC(C)[C@H](N)C(=O)OCC(CO)OCn1cnc2c(=O)nc(N)[nH]c21 (stereo partly shown) [Valganciclovir hydrochloride]	>13.89	>5.24	9.55 ± 2.81 µM	3.38 ± 1 µg/mL	33.79	42.41	75.80	145.98	3.6 ± 1.02 µM	1.28 ± 0.36 µg/mL		improvement of the bioavailability of ganciclovir by oral valganciclovir [2]: 41 ± 20%; CC50 (in vitro [3]): > 50 µM; CC50 (in vitro [7]): > 50 µM
Nc1ncn([C@H]2C[C@H](O)[C@@H](CO)O2)c(=O)n1 [Decitabine]	>178.57	>43.10	1.16 ± 0.31 µM	0.26 ± 0.07 µg/mL	73.51	93.80	120.54	128.21	0.28 ± 0.05 µM	0.06 ± 0.01 µg/mL	> 50 µM	toxic concentration (mice): ~25 µM; CC50 ([9]; E. Derm cells): > 50 µM; CIT50 increase ([4]; 0.78 µM): 25.66 ± 10.74 h; CIT50 increase ([4]; 1.56 µM): 30.13 ± 15.34 h
C[C@@]1(CO)[C@H](O)CC[C@@]2(C)[C@H]1CC[C@H]1C[C@@H]3C[C@@]12CC[C@]3(O)CO [Aphidicolin]	>161.29	>23.15	2.16 ± 0.18 µM		27.44	81.72	106.29		0.31 ± 0.09 µM	0.11 ± 0.03 µg/mL	> 50 µM	CC50 [9]: > 50 µM; CIT50 increase ([4]; 1.25 µM): 7.48 ± 2.69 h; CIT50 increase ([4]; 2.5 µM): 22.43 ± 4.89 h
